Laboratory results taken from patent US7163946B2 (Ligand Pharmaceuticals Incorporated, priority 2002, dated 2007).

How the values were obtained:
[1] = target: T1, human androgen receptor (hAR) (Homo sapiens, UniProt P10275); assay: hAR cotransfection assay (potency ratio to hPR); assay type: cell-based; conditions: receptor-selectivity potency ratio, cotransfection assays
T1 sequence (P10275 1-920): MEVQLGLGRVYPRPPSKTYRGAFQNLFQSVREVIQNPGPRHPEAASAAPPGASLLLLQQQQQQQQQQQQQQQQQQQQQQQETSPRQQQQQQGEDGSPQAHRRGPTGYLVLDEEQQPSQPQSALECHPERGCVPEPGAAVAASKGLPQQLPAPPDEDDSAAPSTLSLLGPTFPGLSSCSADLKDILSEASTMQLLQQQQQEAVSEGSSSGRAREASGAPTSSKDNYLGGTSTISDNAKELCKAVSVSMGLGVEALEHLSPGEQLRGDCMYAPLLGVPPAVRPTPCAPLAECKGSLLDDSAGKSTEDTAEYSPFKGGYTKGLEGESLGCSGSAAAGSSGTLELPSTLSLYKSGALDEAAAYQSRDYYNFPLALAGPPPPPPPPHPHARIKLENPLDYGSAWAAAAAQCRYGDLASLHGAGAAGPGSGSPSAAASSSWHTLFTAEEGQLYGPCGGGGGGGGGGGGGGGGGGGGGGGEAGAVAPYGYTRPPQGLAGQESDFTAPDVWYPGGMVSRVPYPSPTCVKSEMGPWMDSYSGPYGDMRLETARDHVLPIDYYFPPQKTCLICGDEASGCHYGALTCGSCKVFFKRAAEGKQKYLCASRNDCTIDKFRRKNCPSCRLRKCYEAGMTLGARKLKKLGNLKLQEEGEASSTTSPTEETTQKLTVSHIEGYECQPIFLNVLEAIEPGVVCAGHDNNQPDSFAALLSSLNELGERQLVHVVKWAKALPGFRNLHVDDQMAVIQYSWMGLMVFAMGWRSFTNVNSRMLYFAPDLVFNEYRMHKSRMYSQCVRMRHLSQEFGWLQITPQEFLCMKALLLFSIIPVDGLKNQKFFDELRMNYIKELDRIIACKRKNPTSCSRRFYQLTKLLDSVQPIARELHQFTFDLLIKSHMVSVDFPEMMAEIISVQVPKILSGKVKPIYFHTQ

hPR = target: T2, hPR (Homo sapiens, UniProt P06401); assay: T47D alkaline phosphatase assay, antagonist mode; assay type: cell-based; conditions: T47D human breast cancer cells; for Emax: read-out: hPR Antagonists T47D Cells Eff. (%); for IC50: read-out: hPR Antagonists T47D Cells IC50
T2 sequence (P06401 679-933 limits assumed): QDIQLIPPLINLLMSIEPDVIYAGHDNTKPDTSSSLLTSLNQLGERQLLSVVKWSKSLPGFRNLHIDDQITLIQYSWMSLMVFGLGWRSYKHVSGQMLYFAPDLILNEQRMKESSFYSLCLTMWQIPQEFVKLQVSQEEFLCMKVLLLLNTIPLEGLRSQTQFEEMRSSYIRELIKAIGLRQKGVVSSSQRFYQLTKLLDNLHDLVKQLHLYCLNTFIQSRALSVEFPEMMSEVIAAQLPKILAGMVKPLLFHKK

immature rabbits = assay: McPhail (Clauberg) rabbit assay of progestational activity; assay type: in vivo; conditions: Oryctolagus cuniculus; estradiol-primed immature rabbits; glandular changes of the uterus; read-out: potency (MAD in mg/kg), minimum active dose
Method: The superiority of the 7,9-difluoro analogue compounds of the present invention was further characterized utilizing the McPhail rabbit model according to the following illustrative Examples. The Clauberg or McPhail assay is a classic assay utilizing rabbits to measure progestational activity. […] In this assay, immature rabbits are treated initially with estradiol, which induces growth in the uterus. This is followed by a progestin, which causes a large change in the glandular content of the uterus. It is this change in the glandular component which is a measure of the progestational activity of a progestin. The measurement of these glandular changes is carried out histologically using stained sections of the uterus. The in vivo comparison between the new 7,9-difluoro compounds and analogues with substitution patterns different from 7,9-difluoro (U.S. Pat. Nos. 5,693,646 and 5,696,127) is tabulated in Tables 7 and 8. The in vivo potency of the progestins is presented as the minimum active dose (MAD).

[2] = tested on: ovariectomized female rats; assay: Multi-endpoint adult rat model, uterus/breast tissue-selectivity; assay type: in vivo; conditions: ratio of relative efficacy to MPA in uterus verse in breast tissue at the same highest dose tested; estrone-treated ovariectomized rats, three days

Row | hAR EC50 or IC50/hPR EC50 [1] | Emax (hPR) | IC50 (hPR) | Compound | minimal effective dose (immature rabbits) | uterus/breast tissue-selectivity [2]
1 | 37 | < 20% | > 10000 nM | CC1=CC(C)(C)Nc2ccc3c(c21)C(c1ccccc1)Oc1c(F)cc(F)cc1-3 (racemic) [Compound 33, (±)-7,9-difluoro-5-phenyl-1,2-dihydro-2,2,4-trimethyl-5H-chromeno[3,4-f]quinoline] |  | 
2 | 8.5 | 47% | 565 nM | CC1=CC(C)(C)Nc2ccc3c(c21)C(c1cccc(C)c1)Oc1c(F)cc(F)cc1-3 (racemic) [Compound 34, (±)-7,9-difluoro-5-(3-methylphenyl)-1,2-dihydro-2,2,4-trimethyl-5H-chromeno[3,4-f]quinoline] | 1 mg/kg | 
3 | 558 | 56% | 150 nM | CC1=CC(C)(C)Nc2ccc3c(c21)C(c1ccc(Cl)c(C)c1)Oc1c(F)cc(F)cc1-3 (racemic) [Compound 37, (±)-7,9-difluoro-5-(4-chloro-3-methylphenyl)-1,2-dihydro-2,2,4-trimethyl-5H-chromeno[3,4-f]quinoline] |  | 
4 | 252 | 50% | 135 nM | CC1=CC(C)(C)Nc2ccc3c(c21)C(c1cccc(Cl)c1)Oc1c(F)cc(F)cc1-3 (racemic) [Compound 41, (±)-7,9-difluoro-5-(3-chlorophenyl)-1,2-dihydro-2,2,4-trimethyl-5H-chromeno[3,4-f]quinoline] | 0.75 mg/kg | 
5 | 136 | 49% | 490 nM | CC1=CC(C)(C)Nc2ccc3c(c21)C(c1cc2ccccc2s1)Oc1c(F)cc(F)cc1-3 (racemic) [Compound 63, (±)-7,9-difluoro-5-(benzo[b]thien-2-yl)-1,2-dihydro-2,2,4-trimethyl-5H-chromeno[3,4-f]quinoline] |  | 
6 | 100 | 40% | 53 nM | CC#CC1Oc2c(F)cc(F)cc2-c2ccc3c(c21)C(C)=CC(C)(C)N3 (racemic) [Compound 74, (±)-7,9-difluoro-5-(1-propynyl)-1,2-dihydro-2,2,4-trimethyl-5H-chromeno[3,4-f]quinoline] |  | 
7 | 6 | 40% | 170 nM | CC1=CC(C)(C)Nc2ccc3c(c21)/C(=C/Br)Oc1c(F)cc(F)cc1-3 [Compound 29, 7,9-difluoro-5(Z)-bromomethylidene-1,2-dihydro-2,2,4-trimethyl-5H-chromeno[3,4-f]quinoline] |  | 
8 | 377 | 44% | 840 nM | CC1=CC(C)(C)Nc2ccc3c(c21)/C(=C/c1ccsc1)Oc1c(F)cc(F)cc1-3 [Compound 30, 7,9-difluoro-5(Z)-(3-thienylmethylidene)-1,2-dihydro-2,2,4-trimethyl-5H-chromeno[3,4-f]quinoline] |  | 
9 | 517 | 39% | 610 nM | CC1=CC(C)(C)Nc2ccc3c(c21)/C(=C/c1cccs1)Oc1c(F)cc(F)cc1-3 [Compound 31, 7,9-difluoro-5(Z)-(2-thienylmethylidene)-1,2-dihydro-2,2,4-trimethyl-5H-chromeno[3,4-f]quinoline] |  | 3.5

Further lines, the molecule ahead of its results:

Row | Compound | hAR EC50 or IC50/hPR EC50 [1] | Emax (hPR) | IC50 (hPR) | minimal effective dose (immature rabbits) | uterus/breast tissue-selectivity [2]
10 | CC1=CC(C)(C)Nc2ccc3c(c21)/C(=C/c1ccccc1)Oc1c(F)cc(F)cc1-3 [Compound 10, 7,9-difluoro-5(Z)-benzylidene-1,2-dihydro-2,2,4-trimethyl-5H-chromeno[3,4-f]quinoline] | 320 | 49% | 97 nM |  | 
11 | CC1=CC(C)(C)Nc2ccc3c(c21)/C(=C/c1ccncc1)Oc1c(F)cc(F)cc1-3 [Compound 14, 7,9-difluoro-5(Z)-(4-picolylidene)-1,2-dihydro-2,2,4-trimethyl-5H-chromeno[3,4-f]quinoline] | 54 | 44% | 116 nM |  | 
12 | CC1=CC(C)(C)Nc2ccc3c(c21)/C(=C/c1cccc(F)c1)Oc1c(F)cc(F)cc1-3 [Compound 15, 7,9-difluoro-5(Z)-(3-fluorobenzylidene)-1,2-dihydro-2,2,4-trimethyl-5H-chromeno[3,4-f]quinoline] | 2 | 52% | 711 nM | 0.18 mg/kg | 
13 | CC1=CC(C)(C)Nc2ccc3c(c21)/C(=C/c1cc(F)ccc1F)Oc1c(F)cc(F)cc1-3 [Compound 17, 7,9-difluoro-5(Z)-(2,5-difluorobenzylidene)-1,2-dihydro-2,2,4-trimethyl-5H-chromeno[3,4-f]quinoline] | 622 | 42% | 389 nM | 0.25 mg/kg | 2.7
14 | COc1ccccc1/C=C1\Oc2c(F)cc(F)cc2-c2ccc3c(c21)C(C)=CC(C)(C)N3 [Compound 18, 7,9-difluoro-5(Z)-(2-methoxybenzylidene)-1,2-dihydro-2,2,4-trimethyl-5H-chromeno[3,4-f]quinoline] | 170 | 58% | 55 nM | 2 mg/kg | 
15 | CC1=CC(C)(C)Nc2ccc3c(c21)/C(=C/c1cc(F)ccc1C)Oc1c(F)cc(F)cc1-3 [Compound 19, 7,9-difluoro-5(Z)-(2-methyl-5-fluorobenzylidene)-1,2-dihydro-2,2,4-trimethyl-5H-chromeno[3,4-f]quinoline] | >1000 | 35% | 360 nM | 0.1 mg/kg | 3.5
16 | CC1=CC(C)(C)Nc2ccc3c(c21)/C(=C/c1ccncc1C)Oc1c(F)cc(F)cc1-3 [Compound 20, 7,9-difluoro-5(Z)-(3-methyl-4-picolylidene)-1,2-dihydro-2,2,4-trimethyl-5H-chromeno[3,4-f]quinoline] | 8 | 59% | 170 nM | 0.25 mg/kg | 
17 | COc1ccc(F)cc1/C=C1\Oc2c(F)cc(F)cc2-c2ccc3c(c21)C(C)=CC(C)(C)N3 [Compound 26, 7,9-difluoro-5(Z)-(2-methoxy-5-fluorobenzylidene)-1,2-dihydro-2,2,4-trimethyl-5H-chromeno[3,4-f]quinoline] | 742 | 46% | 610 nM | 2 mg/kg | 
